Source: article PMC11364541 (Nature Communications, 2024)

Biological target: T1, SLC13A3 (Homo sapiens, UniProt Q8WWT9)
T1 sequence (Q8WWT9 1-602): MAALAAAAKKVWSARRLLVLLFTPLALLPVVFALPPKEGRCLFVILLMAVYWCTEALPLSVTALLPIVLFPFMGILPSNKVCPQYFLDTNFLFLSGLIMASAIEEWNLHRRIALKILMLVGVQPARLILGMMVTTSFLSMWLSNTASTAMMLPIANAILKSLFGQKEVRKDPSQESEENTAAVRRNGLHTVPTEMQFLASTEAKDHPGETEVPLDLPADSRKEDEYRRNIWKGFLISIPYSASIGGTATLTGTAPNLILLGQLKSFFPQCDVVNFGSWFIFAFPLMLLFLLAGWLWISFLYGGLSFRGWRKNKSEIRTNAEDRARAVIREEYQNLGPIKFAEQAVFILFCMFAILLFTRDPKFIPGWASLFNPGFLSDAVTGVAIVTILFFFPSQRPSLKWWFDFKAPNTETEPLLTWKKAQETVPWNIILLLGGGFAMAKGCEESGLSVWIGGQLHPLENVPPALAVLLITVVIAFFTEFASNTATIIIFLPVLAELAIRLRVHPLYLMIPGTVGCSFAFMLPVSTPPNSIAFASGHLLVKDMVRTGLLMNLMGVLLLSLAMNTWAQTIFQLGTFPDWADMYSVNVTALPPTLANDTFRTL
Test: inhibition of […]-succinate uptake in SLC13A3-transfected HEK293 cells
Format: cell-based

## N[C@@H](CCC(=O)N[C@@H](CS)C(=O)NCC(=O)O)C(=O)O [GSH, glutathione]
  IC50: 1890 µM
